We go through 1 compound from article PMC11192711, “Automated radiosynthesis and preclinical evaluation of two new PSMA-617 derivatives radiolabelled via [^18F]AlF^2+ method” (EJNMMI Radiopharmacy and Chemistry, 2024).

SMILES strings stand for the structures.

The assay concerns the target T1, PSMA (Homo sapiens, UniProt Q04609).
T1 construct: expressed in transfected cells; host or cells: PC3-PIP cells (PC3 stably expressing PSMA), fixed with 0.2% glutaraldehyde
Nature of the assay: Competitive cell binding assay on fixed PC3-PIP cells against [^18F]F-PSMA-1007. As to conditions: 0.75 nM [^18F]F-PSMA-1007, 60 min room temperature, read-out: inhibition potency toward PMSA (IC50). On the procedure: Competitive cell binding experiments were conducted using PC3-PIP cells, [^18F]F-PSMA-1007, 300 nM PSMA-1007, and 8 different concentrations of PSMA-617-NODA (7) and PSMA-617-RESCA (9) (0, 0.01, 0.1, 1, 10, 100, 1000, 10,000 nM).
For in vitro uptake, the PC3-PIP cell line, which is isogenic to PC3 and stably expresses PSMA(Ghosh et al. [2005]), and PC-3 cell line (PSMA negative) were used. 40.000 PC3-PIP and PC3 cells were seeded in 96-well cell culture plates and at the confluence were fixed adding 100 µl of 0.2% glutaraldehyde in PBS to medium. After 5 min incubation at 37 °C, the cells were washed six times with PBS. Then 200 µl of 0.1 M Glycine in PBS with 0.02% of sodium azide were added. After 5 min, the cells were washed 6 times with PBS and finally 250 µl of 1% BSA in PBS with 0.2% of sodium azide were added. The competitive cell binding assays were performed as follows: PC3-PIP fixed cells were incubated with [^18F]F-PSMA-1007 at a concentration of 0.75 nM in the presence of 8 different concentrations of PSMA-617-NODA (7) and PSMA-617-RESCA (9) (0, 0.01, 0.1, 1, 10, 100, 1000, 10,000 nM) and of 300 nM of PSMA-1007. […] The activity in the supernatants and cell pellets was determined using a gamma counter (1282 Compugamma CS, LKB Wallac, Finland). Cellular uptake was calculated as the percentage of radioactivity in cell pellets. […]

A word on the IC50: it is the point on the concentration scale where inhibition reaches its midpoint.

T1 sequence (Q04609 whole entry): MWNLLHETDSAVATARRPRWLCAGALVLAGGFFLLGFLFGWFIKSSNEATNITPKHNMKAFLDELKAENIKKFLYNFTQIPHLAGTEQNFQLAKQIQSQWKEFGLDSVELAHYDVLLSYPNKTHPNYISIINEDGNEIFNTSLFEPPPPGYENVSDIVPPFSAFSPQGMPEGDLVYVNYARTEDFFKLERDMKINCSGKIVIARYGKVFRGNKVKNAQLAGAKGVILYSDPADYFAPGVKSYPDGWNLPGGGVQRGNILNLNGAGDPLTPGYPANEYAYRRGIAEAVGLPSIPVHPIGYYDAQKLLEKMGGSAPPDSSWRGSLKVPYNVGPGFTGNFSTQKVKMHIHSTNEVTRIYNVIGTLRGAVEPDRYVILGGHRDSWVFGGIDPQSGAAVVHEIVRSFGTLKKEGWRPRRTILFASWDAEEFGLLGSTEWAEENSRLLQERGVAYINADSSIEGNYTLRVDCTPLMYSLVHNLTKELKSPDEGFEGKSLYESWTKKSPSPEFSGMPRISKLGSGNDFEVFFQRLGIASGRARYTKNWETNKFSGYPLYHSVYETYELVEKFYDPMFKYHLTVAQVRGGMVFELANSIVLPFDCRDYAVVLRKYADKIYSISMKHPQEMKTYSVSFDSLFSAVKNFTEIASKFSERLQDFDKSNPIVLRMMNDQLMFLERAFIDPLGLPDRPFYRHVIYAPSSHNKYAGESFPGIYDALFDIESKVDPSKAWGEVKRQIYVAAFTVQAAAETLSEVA

`O=C(O)CCC(NC(=O)NC(CCCCNC(=O)C(Cc1ccc2ccccc2c1)NC(=O)C1CCC(CNC(=O)Cc2ccc(CN(CC(=O)O)C3CCCCC3N(CC(=O)O)CC(=O)O)cc2)CC1)C(=O)O)C(=O)O` [PSMA-617-RESCA, (((S)-5-((S)-2-((1R,4S)-4-((2-(4-((((1R,2R)-2-(bis(carboxymethyl)amino)cyclohexyl)(carboxymethyl)amino)methyl)phenyl)acetamido)methyl)cyclohexane-1-carboxamido)-3-(naphthalen-2-yl)propanamido)-1-carboxypentyl)carbamoyl)-L-glutamic acid]: the IC50 stood at 20 nM.
